Test results published in patent publication US6892140B1, “Immunogenic cancer peptides and uses thereof” (Enteron, Inc., priority 2000, dated 2005).
Ends that are not written are not given here.

System: antibodies in sera from prostate cancer patients
Assay: Prostate cancer serum test of cell surface protein peptides (Table 3)
Type: binding, human
Parameters: key: +: positive or negative reactivity between peptides representing modified peptide regions of cancer cell surface protein molecules with antibodies in sera from prostate cancer patients; −: positive or negative reactivity between peptides representing modified peptide regions of cancer cell surface protein molecules with antibodies in sera from prostate cancer patients
Conditions: reactivity of peptide with antibodies in sera from prostate cancer patients
Source text: Table 3 third column illustrates the positive or negative reactivity between peptides representing modified peptide regions of cancer cell surface protein molecules with antibodies in sera from prostate cancer patients. The presence or absence in prostate cancer cells of the 41 tested molecules is shown as + or − in column four.
Sixth, employing the immunoassays disclosed herein, each biotinylated peptide is screened as an antigen against sera or other relevant biological fluids containing antibodies taken from one of the following groups: cancer patients, patients with benign lesions or inflammatory conditions, and healthy subjects. Peptides can also be screened using tumor-infiltrating lymphocytes or peripheral blood-born lymphocytes from cancer patients. Candidate peptides we consider cancer-specific or cancer-associated depend on whether they fit the following definitions.

Substance | Prostate Cancer Serum Test Result
IrNes: Tested peptide of cell surface protein integrin alpha 5 (LRNES; not fully specified) | −
NhSeg: Tested peptide of cell surface protein CD44 (NHSEG; not fully specified) | +
aeNct: Tested peptide of cell surface protein erbB-4 (AENCT; not fully specified) | −
crNvs: Tested peptide of cell surface protein erbB-1 (CRNVS; not fully specified) | −
daNkt: Tested peptide of cell surface protein erbB-1 (DANKT; not fully specified) | +
deNit: Tested peptide of cell surface protein tgfr beta type II (DENIT; not fully specified) | +
diNss: Tested peptide of cell surface protein fgfr4 (DINSS; not fully specified) | −
dkNls: Tested peptide of cell surface protein N-Cadherin (DKNLS; not fully specified) | +
dkNst: Tested peptide of cell surface protein CD38 (DKNST; not fully specified) | −
drNgt: Tested peptide of cell surface protein CD44 (DRNGT; not fully specified) | +
drNhs: Tested peptide of cell surface protein integrin alpha 2 (DRNHS; not fully specified) | −
drNht: Tested peptide of cell surface protein CD46 (DRNHT; not fully specified) | −
dtNrs: Tested peptide of cell surface protein erbB-2 (DTNRS; not fully specified) | +
eeNns: Tested peptide of cell surface protein pdgfr alpha (EENNS; not fully specified) | −
ekNdt: Tested peptide of cell surface protein integrin alpha (v) (EKNDT; not fully specified) | −
ekNgs: Tested peptide of cell surface protein fgfr2 (EKNGS; not fully specified) | −
esNrt: Tested peptide of cell surface protein fgfr1 (ESNRT; not fully specified) | −
evNss: Tested peptide of cell surface protein integrin beta 6 (EVNSS; not fully specified) | −
eyNts: Tested peptide of cell surface protein tgfr beta type II (EYNTS; not fully specified) | +
gdNrt: Tested peptide of cell surface protein protein-tyrosine phosphatase kappa (GDNRT; also: biotin label, end not given here) | −
ghNes: Tested peptide of cell surface protein protein-tyrosine phosphatase kappa (GHNES; also: biotin label, end not given here) | −
gtNkt: Tested peptide of cell surface protein CD40 (GTNKT; also: biotin label, end not given here) | +
